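Dose response: 5 concentrations. Exposure: 48 h. Format: 96-well plates. Endpoint: linear interpolation; highest concentration if not reached. Abbreviation: GI50, concentration required for 50% inhibition of growth.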 Activity calls are given as the source filed them. Rule as the data show it: active = GI50 up to about 1.1 µM and inactive = higher.
Experiments:
Experiment in all cases: NCI tumour cell line growth inhibition, 48 h
[1] = system: 786-0
[2] = system: A498
[3] = system: A549
[4] = system: ACHN
[5] = system: BT-549
[6] = system: CAKI-1
[7] = system: CCRF-CEM
[8] = system: COLO 205
[9] = system: DU-145
[10] = system: EKVX
[11] = system: HCC 2998
[12] = system: HCT-116
[13] = system: HCT-15
[14] = system: HL-60
[15] = system: HOP-62
[16] = system: HOP-92
[17] = system: HT-29
[18] = system: Hs-578T
[19] = system: IGROV-1
[20] = system: K562
[21] = system: KM12
[22] = system: LOX IMVI
[23] = system: M14
[24] = system: MCF7
[25] = system: MDA-MB-231
[26] = system: MDA-MB-435
[27] = system: MDA-N
[28] = system: MOLT-4
[29] = system: Malme-3M
[30] = system: NCI-H226
[31] = system: NCI-H23
[32] = system: NCI-H460
[33] = system: NCI-H522
[34] = system: NCI/ADR-RES
[35] = system: OVCAR-3
[36] = system: OVCAR-4
[37] = system: OVCAR-5
[38] = system: OVCAR-8
[39] = system: PC-3
[40] = system: RPMI-8226
[41] = system: RXF 393
[42] = system: SF-268
[43] = system: SF-295
[44] = system: SF-539
[45] = system: SK-MEL-28
[46] = system: SK-MEL-2
[47] = system: SK-MEL-5
[48] = system: SK-OV-3
[49] = system: SN12C
[50] = system: SNB-19
[51] = system: SNB-75
[52] = system: SW-620
[53] = system: T47D
[54] = system: TK-10
[55] = system: U-251
[56] = system: UACC-257
[57] = system: UACC-62
[58] = system: UO-31

With c1ccc2c(c1)[C@@H]1O[C@@H]1[C@@]13O[C@@]21[C@H]1O[C@H]1c1ccccc13 the GI50 [1] was 15.2 µM (inactive), the GI50 [2] was 15.7 µM (inactive) and the GI50 [3] was 15.7 µM (inactive). The GI50 [4] was 12.9 µM (inactive), the GI50 [5] was 16.2 µM (inactive) and the GI50 [6] was 10.8 µM (inactive). The GI50 [7] was 4.48 µM (inactive), the GI50 [8] was 15.7 µM (inactive) and the GI50 [9] was 15.3 µM (inactive). For the same molecule, the GI50 [10] was 17 µM (inactive), the GI50 [11] was 16.6 µM (inactive) and the GI50 [12] was 12.1 µM (inactive). The GI50 [13] was 19.5 µM, the GI50 [14] was 13.3 µM (inactive) and the GI50 [15] was 15.5 µM (inactive). The GI50 [16] was 9.89 µM (inactive), the GI50 [17] was 20.2 µM (inactive) and the GI50 [18] was 13 µM (inactive). The GI50 [19] was 12.2 µM (inactive), the GI50 [20] was 13.6 µM (inactive) and the GI50 [21] was 12.9 µM (inactive). For the same molecule, the GI50 [22] was 10.2 µM (inactive), the GI50 [23] was 15.6 µM (inactive) and the GI50 [24] was 10.1 µM (inactive). The GI50 [25] was 15.8 µM (inactive), the GI50 [26] was 13.7 µM (inactive) and the GI50 [27] was 15.6 µM (inactive). For the same molecule, the GI50 [28] was 10.6 µM (inactive), the GI50 [29] was 12.7 µM (inactive) and the GI50 [30] was 15.3 µM (inactive). The GI50 [31] was 14 µM (inactive), the GI50 [32] was 14.7 µM (inactive) and the GI50 [33] was 10.8 µM (inactive). The GI50 [34] was 16.3 µM (inactive), the GI50 [35] was 16.5 µM (inactive) and the GI50 [36] was 11.9 µM (inactive). For the same molecule, the GI50 [37] was 17.1 µM (inactive), the GI50 [38] was 15.6 µM (inactive) and the GI50 [39] was 13.1 µM (inactive). The GI50 [40] was 9.16 µM (inactive), the GI50 [41] was 12.6 µM (inactive) and the GI50 [42] was 13.7 µM (inactive). The GI50 [43] was 15.1 µM (inactive), the GI50 [44] was 16.5 µM (inactive) and the GI50 [45] was 16.9 µM (inactive). For the same molecule, the GI50 [46] was 14.7 µM (inactive), the GI50 [47] was 12.9 µM (inactive) and the GI50 [48] was 21.5 µM (inactive). For the same molecule, the GI50 [49] was 17.7 µM (inactive), the GI50 [50] was 16.1 µM (inactive) and the GI50 [51] was 12.9 µM (inactive). For the same molecule, the GI50 [52] was 12.8 µM (inactive), the GI50 [53] was 17.8 µM (inactive) and the GI50 [54] was 18.1 µM (inactive). The GI50 [55] was 12.3 µM (inactive), the GI50 [56] was 17.6 µM (inactive) and the GI50 [57] was 12.2 µM (inactive). The GI50 [58] was 33.4 µM (inactive).
